{"source": "PubChem BioAssay AID463206", "about": "(Broad Institute, 2010)", "note": "Active and inactive are the calls of the source.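 The calls were made as follows: active = caspase luminescence falls with dose and the half-maximal concentration AC50 from the fitted curve is at or below a set limit; inconclusive = flat fit at 30 to 70% signal loss, or invalid fit; inactive = AC50 above the limit, or signal rises instead.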", "data": [{"test_system": "INS-1E cytokine-induced caspase-3/7, Caspase-Glo luminescence, 48 h", "assay": "suppression of cytokine-driven beta-cell apoptosis – INS-1E rat cells, luminescence, orthogonal assay for beta-cell apoptosis protection project, dose response (AID 463206)", "values": [{"smiles": "CCN(Cc1ccccc1)C(c1cccs1)c1nnnn1C1CCCCC1", "note": "(stereo not drawn)", "AC50": "> 26 µM (inactive)"}, {"smiles": "CCOCCCNC(=O)c1c[nH]c2cc(OC)ccc2c1=O", "AC50": "> 26 µM (inactive)"}, {"smiles": "O=C(NCc1cccnc1)Nc1ccc([N+](=O)[O-])cc1", "AC50": "> 26 µM (inactive)"}, {"smiles": "Cc1ccc(C(=O)O/N=C/c2c(N3CCOCC3)n(C)c3ccccc23)cc1", "AC50": "> 26 µM (inactive)"}, {"smiles": "O=C(N/N=C/c1ccccc1O)c1ccc2c(c1)OCO2", "AC50": "> 26 µM (inactive)"}, {"smiles": "Cc1ccc(F)c([C@H]2C3C=CCC(c4ccccc4)C3C(=O)N2Cc2ccccc2)c1", "note": "(stereo partly drawn)", "AC50": "> 26 µM (inactive)"}, {"smiles": "O=C(Nc1ccc(Br)c(C(F)(F)F)c1)c1ccc(C(F)(F)F)cc1", "AC50": "> 26 µM (inactive)"}, {"smiles": "CN(C)CCCN(C(=O)COc1ccc(Cl)cc1)c1nc2cc3c(cc2s1)OCO3", "AC50": "> 26 µM (inactive)"}, {"smiles": "Cc1cc(-c2ccccc2)cc(-c2ccccc2)[n+]1CCc1ccccc1", "AC50": "> 26 µM (inactive)"}, {"smiles": "CC(=O)c1c(C)[nH]c(C(=O)OCC(=O)Nc2ccc(Cl)cc2[N+](=O)[O-])c1C", "AC50": "> 26 µM (inactive)"}, {"smiles": "CC[C@]1(c2ccccc2OC)ON(c2ccccc2C(F)(F)F)C1=O", "AC50": "> 26 µM (inactive)"}, {"smiles": "O=C(NCCc1cn2ccccc2n1)c1cc(COc2ccc3ncccc3c2)on1", "AC50": "> 26 µM (inactive)"}, {"smiles": "O=C(CNc1cccc2ccccc12)N/N=C/c1ccc([N+](=O)[O-])o1", "AC50": "> 26 µM (inactive)"}, {"smiles": "Cc1ccc(CSC(Nc2ccc(F)cc2)=C(C#N)C#N)cc1", "AC50": "> 26 µM (inactive)"}, {"smiles": "Cc1ccc(-c2ccc(/C=C3\\C(=O)ON=C3c3ccccc3)o2)c([N+](=O)[O-])c1", "AC50": "> 26 µM (inactive)"}, {"smiles": "CCC(C)Sc1ccc(-c2nc3ccc(C)cn3c2NCc2ccccc2)cc1OC", "note": "(stereo not drawn)", "AC50": "> 26 µM (inactive)"}, {"smiles": "Oc1c(CN2CCN(c3ccccc3)CC2)cc(Br)c2cccnc12", "AC50": "> 26 µM (inactive)"}, {"smiles": "CCSC1=NCCN1C(=O)C(C)(C)Oc1ccc(Cl)cc1", "AC50": "> 26 µM (inactive)"}, {"smiles": "CCn1c(=NC(=O)CCS(=O)(=O)c2ccccc2)sc2cccc(OC)c21", "AC50": "> 12 µM (inactive)"}, {"smiles": "Cc1ccc(S(=O)(=O)NCc2ccncc2)cc1C", "AC50": "> 26 µM (inactive)"}, {"smiles": "Cc1ccc(C)c(N2CCN(C(=O)CCCOc3cc(=O)n(C)c4ccccc34)CC2)c1", "AC50": "> 12 µM (inactive)"}, {"smiles": "Cc1ccc(C(=O)C[n+]2cc(-c3ccc(C)cc3)n3c2CCCCC3)cc1", "AC50": "> 26 µM (inactive)"}, {"smiles": "O=C(NNC(=O)C12CC3CC(CC(C3)C1)C2)c1ccccn1", "AC50": "> 26 µM (inactive)"}, {"smiles": "CC(C)CC[n+]1ccn(C2=C([O-])c3ccccc3C(=O)/C2=N\\S(=O)(=O)c2ccccc2)c1", "AC50": "> 26 µM (inactive)"}, {"smiles": "C/C(=N/Nc1nc(-c2ccccc2)cc(-c2ccc(F)cc2)n1)c1cccc(N)c1", "AC50": "> 26 µM (inactive)"}, {"smiles": "Cc1ccc(-c2nc(C(Cl)Cl)c3ccccc3n2)cc1", "AC50": "2.66 µM"}, {"smiles": "COc1ccc(CNc2ncnc3sccc23)cc1", "AC50": "> 26 µM (inactive)"}, {"smiles": "COc1ccc(Br)cc1CN1CCN(Cc2c[nH]c3ccccc23)CC1", "AC50": "> 26 µM (inactive)"}, {"smiles": "c1ccc2c(CN3CCCCCC3)c[nH]c2c1", "AC50": "4.24 µM"}, {"smiles": "Cc1ccc(N2C(=O)CSC2c2cccnc2)c(Cl)c1", "note": "(stereo not drawn)", "AC50": "> 26 µM (inactive)"}, {"smiles": "COC(=O)c1cc(O)cc(OC)c1Oc1cc(C)cc(O)c1C(=O)O", "AC50": "3.06 µM"}, {"smiles": "Cc1cc(N2CCN(S(=O)(=O)c3ccc(Cl)cc3)CC2)c2ccccc2n1", "AC50": "> 12 µM (inactive)"}, {"smiles": "Cc1nc2ccccc2n1Cc1ccc(Br)cc1", "AC50": "> 26 µM (inactive)"}, {"smiles": "CC(C)(C)OC(=O)NCc1ccc(NC(=O)c2nc[nH]c2C(=O)NCCNC(=O)c2[nH]cnc2C(=O)Nc2ccc(CNC(=O)OC(C)(C)C)cc2)cc1", "AC50": "> 26 µM (inactive)"}, {"smiles": "COC(=O)c1cc(C)nc2c1C(=O)C(=O)C=C2N1CCOCC1", "AC50": "> 26 µM (inactive)"}, {"smiles": "CCCSc1nsc(NC(=O)Nc2ccc(F)cc2F)n1", "AC50": "> 26 µM (inactive)"}, {"smiles": "Cc1nc2ccccn2c1C(=O)/C=C/c1cccc([N+](=O)[O-])c1", "AC50": "> 26 µM (inactive)"}, {"smiles": "C/C(=N\\Nc1ccc2nncn2n1)c1ccccn1", "AC50": "> 26 µM (inactive)"}, {"smiles": "COc1cccc(/C=N/Nc2ncc(C(F)(F)F)cc2Cl)c1O", "AC50": "> 26 µM (inactive)"}, {"smiles": "Cc1sc2cc3c(c(C(=O)c4ccccc4)[n+]2c1C)-c1cccc2cccc-3c12", "AC50": "> 26 µM (inactive)"}, {"smiles": "On1onc2c3cc(-c4ccccc4)nc3ccc21", "AC50": "> 26 µM (inactive)"}, {"smiles": "COc1ccc(C(NC(=O)C(C)C)c2ccc3cccnc3c2O)cc1", "note": "(stereo not drawn)", "AC50": "> 26 µM (inactive)"}, {"smiles": "COc1ccc(CCNc2ncnc3sccc23)cc1OC", "AC50": "> 26 µM (inactive)"}, {"smiles": "CCCCCCCCCCOC(=O)Cn1c(COc2ccccc2)[n+](C)c2ccccc21", "AC50": "> 26 µM (inactive)"}, {"smiles": "O=C(Nc1ccc(Cl)cc1)Nc1nnc(CSCc2ccc(Cl)cc2)s1", "AC50": "> 26 µM (inactive)"}, {"smiles": "Cc1ccc2c(c1)nnn2C1CCN(S(=O)(=O)c2ccc(C(=O)N3C(C)CCCC3C)cc2)CC1", "note": "(stereo not drawn)", "AC50": "> 26 µM (inactive)"}, {"smiles": "Cc1cc(C(C)(C)C)cc(C)c1C[n+]1ccc2ccccc2c1", "AC50": "> 26 µM (inactive)"}, {"smiles": "Cc1ccc(Sc2cc(C)nc(-c3ccccn3)n2)cc1", "AC50": "> 12 µM (inactive)"}]}]}
